Tests used:
[1] = test system: Thanatephorus cucumeris (Rhizoctonia solani); assay: Thanatephorus cucumeris (Rhizoctonia solani) / liquid culture (foot rot, damping-off); assay type: cell-based; settings: PDB, 24° C., 3-4 days after application, read-out: control of Thanatephorus cucumeris (inhibition of growth, photometric)
Procedure, shortened: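 Mycelial fragments in potato dextrose broth exposed to test compounds at 200 ppm (from DMSO solution), incubated at 24° C. Growth inhibition read photometrically 3-4 days after application.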

[2] = test system: Glomerella lagenarium (Colletotrichum lagenarium); assay: Glomerella lagenarium (Colletotrichum lagenarium) / liquid culture (anthracnose); assay type: cell-based; settings: Colletotrichum orbiculare, PDB, 24° C., 3-4 days after application, read-out: control of Glomerella lagenarium (inhibition of growth, photometric)
Procedure, shortened: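 Cryopreserved conidia suspended in potato dextrose broth were added to compound in DMSO applied at 200 ppm. Plates incubated at 24° C; growth inhibition read photometrically 3-4 days after application.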

Pyrenophora teres = Pyrenophora teres / barley / leaf disc preventative (net blotch); assay type: in vivo; settings: foliar, barley leaf segments cv Hasso, inoculated two days after application, assessed 5-7 days after application, read-out: control of Pyrenophora teres (disease control compared to untreated)
Procedure, shortened: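 Barley cv Hasso leaf segments on agar sprayed with compound at 200 ppm, inoculated with spores two days later. Kept at 20 °C, 65% RH, 12/12 h light; disease control versus untreated scored 5-7 days after application.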

[3] = test system: Mycosphaerella graminicola (Septoria tritici); assay: Mycosphaerella graminicola (Septoria tritici) / liquid culture (Septoria blotch); assay type: cell-based; settings: Zymoseptoria tritici, PDB, 24° C., 4-5 days after application, read-out: control of Mycosphaerella graminicola (inhibition of growth, photometric)
Procedure, shortened: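 Cryo-stored conidia in potato dextrose broth were added to compound in DMSO at 200 ppm in microtiter plates. Plates were incubated at 24 °C and growth inhibition was measured photometrically 4–5 days after application.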

[4] = test system: Botryotinia fuckeliana (Botrytis cinerea); assay: Botryotinia fuckeliana (Botrytis cinerea) / liquid culture (gray mould); assay type: cell-based; settings: Vogels broth, 24° C., 3-4 days after application, read-out: control of Botryotinia fuckeliana (inhibition of growth, photometric)
Procedure, shortened: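 Botrytis cinerea conidia in Vogels broth were added to test compound applied from DMSO at 200 ppm. Incubation at 24 °C; growth inhibition read photometrically 3-4 days after application.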

[5] = test system: Mycosphaerella arachidis (Cercospora arachidicola); assay: Mycosphaerella arachidis (Cercospora arachidicola) / liquid culture (early leaf spot); assay type: cell-based; settings: PDB, 24° C., 4-5 days after application, read-out: control of Mycosphaerella arachidis (inhibition of growth, photometric)
Method: Mycosphaerella Arachidis (Cercospora arachidicola)/Liquid Culture (Early Leaf Spot): Conidia of the fungus from cryogenic storage were directly mixed into nutrient broth (PDB potato dextrose broth). After placing a DMSO solution of test compound into a 96-well microtiter plate at an application rate of 200 ppm, the nutrient broth containing the fungal spores was added. The test plates are incubated at 24° C. and the inhibition of growth was determined photometrically 4-5 days after application.

Gaeumannomyces graminis = Gaeumannomyces graminis / liquid culture (take-all of cereals); assay type: cell-based; settings: PDB, 24° C., 4-5 days after application, read-out: control of Gaeumannomyces graminis (inhibition of growth, photometric)
Procedure, shortened: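 Mycelial fragments in potato dextrose broth were exposed to compound from DMSO at 200 ppm in microtiter plates. Incubation at 24 °C; growth inhibition read photometrically 4-5 days after application.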

[6] = test system: Puccinia recondita f. sp. Tritici; assay: Puccinia recondita f. sp. tritici / wheat / leaf disc preventative (brown rust); assay type: in vivo; settings: foliar, wheat leaf segments cv Kanzler, inoculated 1 day after application, assessed 7-9 days after application, read-out: control of Puccinia recondita f. sp. Tritici (percent disease control compared to untreated)
Procedure, shortened: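 Leaf segments of wheat cv Kanzler on agar were sprayed with formulated compound at 200 ppm and inoculated with spores 1 day later. Incubation was at 19° C, 75% relative humidity and 12/12 h light/dark. Activity was scored 7-9 days after application as percent disease control versus untreated.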

[7] = test system: Monographella nivalis (Microdochium nivale); assay: Monographella nivalis (Microdochium nivale) / liquid culture (foot rot cereals); assay type: cell-based; settings: PDB, 24° C., 4-5 days after application, read-out: control of Monographella nivalis (inhibition of growth, photometric)
Procedure, shortened: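 Cryostored conidia in potato dextrose broth were added to test compound dispensed from DMSO at 200 ppm. Plates were kept at 24° C, and growth inhibition was read photometrically 4-5 days after application.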

[8] = test system: Phaeosphaeria nodorum (Septoria nodorum); assay: Phaeosphaeria nodorum (Septoria nodorum) / wheat / leaf disc preventative (glume blotch); assay type: in vivo; settings: Parastagonospora nodorum, foliar, wheat leaf segments cv Kanzler, inoculated 2 days after application, assessed 5-7 days after application, read-out: control of Phaeosphaeria nodorum (percent disease control compared to untreated)
Method: Phaeosphaeria nodorum (Septoria nodorum)/Wheat/Leaf Disc Preventative (Glume Blotch): Wheat leaf segments cv Kanzler were placed on agar in a 24-well plate and sprayed with formulated test compound diluted in water at an application rate of 200 ppm. The leaf disks are inoculated with a spore suspension of the fungus 2 days after application. The inoculated test leaf disks are incubated at 20° C. and 75% relative humidity under a light regime of 12/12 h (light/dark) in a climate cabinet and the activity of a compound is assessed as percent disease control compared to untreated when an appropriate level of disease damage appears in untreated check leaf disks (5-7 days after application).

Sclerotinia sclerotiorum = Sclerotinia sclerotiorum liquid culture (cottony rot / white mold); assay type: cell-based; settings: PDB, 24° C., 3-4 days after application, read-out: control of Sclerotinia sclerotiorum (inhibition of growth, photometric)
Method: Sclerotinia sclerotiorum (Cottony Rot/White Mold): Mycelia fragments of a newly grown liquid culture of the fungus were directly mixed into nutrient broth (PDB potato dextrose broth). After placing a (DMSO) solution of test compound into a microtiter plate (96-well format) the nutrient broth containing the fungal material was added. The test plates are incubated at 24° C. and the inhibition of growth was determined photometrically 3-4 days after application.

Plasmopara viticola = Plasmopara viticola / grape / leaf disc preventative; assay type: in vivo; settings: foliar, grape vine leaf disks, inoculated 1 day after application, assessed 6-8 days after application, read-out: control of Plasmopara viticola (percent disease control compared to untreated)

Row | SMILES | melting point [°C] | inhibition at 20 ppm [1] [%] | inhibition at 20 ppm [2] [%] | pest or weed control at 200 ppm (Pyrenophora teres) [%] | inhibition at 20 ppm [3] [%] | inhibition at 20 ppm [4] [%] | inhibition at 20 ppm [5] [%] | inhibition at 20 ppm (Gaeumannomyces graminis) [%] | pest or weed control at 200 ppm [6] [%] | inhibition at 20 ppm [7] [%] | pest or weed control at 200 ppm [8] [%] | inhibition at 20 ppm (Sclerotinia sclerotiorum) [%] | pest or weed control at 200 ppm (Plasmopara viticola) [%]
1 | CCn1c(-n2ncnc2N)nc2cncc(C(C)=NOC(C)(C)C)c21 [Compound 140] | 171 to 175 | ≥ 80 | ≥ 80 | ≥ 80 | ≥ 80 | ≥ 80 | ≥ 80 | ≥ 80 | ≥ 80 |  |  |  | 
2 | CCn1c(-n2ncnc2N)nc2cncc(/C(C)=N\OCC=C(C)C)c21 [Compound 156] |  | ≥ 80 | ≥ 80 | ≥ 80 | ≥ 80 | ≥ 80 |  |  | ≥ 80 | ≥ 80 | ≥ 80 | ≥ 80 | ≥ 80
3 | Nc1nc(Br)nn1-c1nc2cnccc2n1C1CCCCC1 [Compound 20, 5-bromo-2-(1-cyclohexylimidazo[4,5-c]pyridin-2-yl)-1,2,4-triazol-3-amine] | 217 to 221 |  | ≥ 80 |  |  |  |  |  |  |  |  |  | 
4 | CCn1c(-n2ncnc2N)nc2cncc(C(C)=NOC)c21 [Compound 133] | 170 to 173 | ≥ 80 |  | ≥ 80 | ≥ 80 | ≥ 80 | ≥ 80 | ≥ 80 |  | ≥ 80 |  |  | 
5 | CCn1c(-n2ncnc2N)nc2cncc(C(C)=NOCc3c(Cl)cccc3Cl)c21 [Compound 160] |  | ≥ 80 |  | ≥ 80 | ≥ 80 |  |  |  | ≥ 80 |  |  |  | ≥ 80
6 | Nc1ncnn1-c1nc2cncc(Br)c2n1CC(F)(F)F [Compound 76, 2-[7-bromo-1-(2,2,2-trifluoroethyl)imidazo[4,5-c]pyridin-2-yl]-1,2,4-triazol-3-amine] | 234 to 236 | ≥ 80 | ≥ 80 | ≥ 80 | ≥ 80 | ≥ 80 |  | ≥ 80 |  |  | ≥ 80 |  | 
7 | CCn1c(-n2ncnc2N)nc2cncc(C(C)=NOCc3ccccc3)c21 [Compound 165] |  | ≥ 80 | ≥ 80 | ≥ 80 | ≥ 80 | ≥ 80 |  |  | ≥ 80 | ≥ 80 | ≥ 80 | ≥ 80 | ≥ 80
8 | CCn1c(-n2ncnc2N)nc2cncc(CCc3ccccc3)c21 [Compound 24, 2-[1-ethyl-7-(2-phenylethyl)imidazo[4,5-c]pyridin-2-yl]-1,2,4-triazol-3-amine] | 205 to 208 | ≥ 80 | ≥ 80 | ≥ 80 | ≥ 80 | ≥ 80 |  | ≥ 80 | ≥ 80 | ≥ 80 |  |  | 
9 | CCCn1c(-n2ncnc2N)nc2cncc(-c3ccc(Cl)cc3Cl)c21 [Compound 118, 2-[7-(2,4-dichlorophenyl)-1-propylimidazo[4,5-c]pyridin-2-yl]-1,2,4-triazol-3-amine] |  | ≥ 80 | ≥ 80 | ≥ 80 | ≥ 80 | ≥ 80 |  | ≥ 80 |  | ≥ 80 | ≥ 80 |  | ≥ 80
10 | CCn1c(-n2ncnc2N)nc2cncc(-c3ccc(C)cc3)c21 [Compound 28, 2-[1-ethyl-7-(4-methylphenyl)imidazo[4,5-c]pyridin-2-yl]-1,2,4-triazol-3-amine] | 234 to 236 | ≥ 80 | ≥ 80 | ≥ 80 | ≥ 80 | ≥ 80 |  |  | ≥ 80 |  |  |  | 
11 | CCn1c(-n2ncnc2N)nc2cncc(/C(C)=N\OC(C)C)c21 [Compound 166] |  | ≥ 80 | ≥ 80 | ≥ 80 | ≥ 80 | ≥ 80 |  |  | ≥ 80 |  |  |  | ≥ 80
12 | CCn1c(-n2ncnc2N)nc2cncc(C(C)=NOCC(F)(F)F)c21 [Compound 169] |  | ≥ 80 | ≥ 80 | ≥ 80 | ≥ 80 | ≥ 80 |  |  | ≥ 80 |  |  |  | ≥ 80
13 | CCc1nc(N)n(-c2nc3cnccc3n2C2CCCCC2)n1 [Compound 7, 2-(1-cyclohexylimidazo[4,5-c]pyridin-2-yl)-5-ethyl-1,2,4-triazol-3-amine] | 198 to 203 |  | ≥ 80 |  |  |  |  |  |  |  |  |  | 
14 | Nc1nc(C2CC2)nn1-c1nc2cnccc2n1C1CCCCC1 [Compound 8, 2-(1-cyclohexylimidazo[4,5-c]pyridin-2-yl)-5-cyclopropyl-1,2,4-triazol-3-amine] | 196 to 199 |  | ≥ 80 |  |  |  |  |  |  |  |  |  | 
15 | CCn1c(-n2ncnc2N)nc2cncc(-c3cccc4ccccc34)c21 [Compound 40, 2-(1-ethyl-7-naphthalen-1-ylimidazo[4,5-c]pyridin-2-yl)-1,2,4-triazol-3-amine] |  | ≥ 80 |  | ≥ 80 | ≥ 80 |  |  |  |  |  |  |  | ≥ 80
16 | CCn1c(-n2ncnc2N)nc2cncc(C(C)=NOCc3ccccc3OC)c21 [Compound 146] |  | ≥ 80 | ≥ 80 | ≥ 80 | ≥ 80 | ≥ 80 |  |  | ≥ 80 |  |  |  | ≥ 80
17 | CCn1c(-n2ncnc2N)nc2cncc(Cc3ccccc3)c21 [Compound 25, 2-(7-benzyl-1-ethylimidazo[4,5-c]pyridin-2-yl)-1,2,4-triazol-3-amine] | 220 to 224 | ≥ 80 |  |  | ≥ 80 | ≥ 80 |  | ≥ 80 |  | ≥ 80 |  |  | 

Source: patent US9512120B2, “Microbicidally active imidazopyridine derivatives” (Syngenta Participations AG, priority 2013, dated 2016)
